Results taken from US9180128B2, “Stable pharmaceutical compositions of 5,10-methylene tetrahydrofolate” (MERCK & CIE, priority 2003, dated 2015).
Like-named read-outs stand apart in the source and are kept apart here.

Columns and labels:
[1] = physiological common salt solution, +25° C, cited from earlier work
[2] = Storage stability of untreated reference sample; assay type: physicochemical; conditions: storage at +25° C

% relative stability ([2]; 0 months) | % relative stability ([2]; 0.5 months) | % relative stability ([2]; 1.0 months) | % relative stability ([2]; 1.75 months) | % relative stability ([2]; 2.5 months) | % relative stability ([2]; 4.5 months) | % relative stability ([2]; 9.2 months) | % relative stability ([2]; 19.0 months) | Compound | % relative stability ([1]; with the exclusion of air, 0 hours) | % relative stability ([1]; with the exclusion of air, 4.0 hours) | % relative stability ([1]; with the exclusion of air, 24.0 hours) | % relative stability ([1]; with the exclusion of air, 26.0 hours) | % relative stability ([1]; with the exclusion of air, 48.0 hours) | % relative stability ([1]; without the exclusion of air, 0 hours) | % relative stability ([1]; without the exclusion of air, 4.0 hours) | % relative stability ([1]; without the exclusion of air, 24.0 hours) | % relative stability ([1]; without the exclusion of air, 26.0 hours) | % relative stability ([1]; without the exclusion of air, 48.0 hours)
– | – | – | – | – | – | – | – | Nc1nc2c(c(=O)[nH]1)N1CN(c3ccc(C(=O)N[C@@H](CCC(=O)[O-])C(=O)O)cc3)C[C@H]1CN2.Nc1nc2c(c(=O)[nH]1)N1CN(c3ccc(C(=O)N[C@@H](CCC(=O)[O-])C(=O)O)cc3)C[C@H]1CN2.[Ca+2] [calcium salt of 5,10-methylene-(6R,S)-tetrahydrofolic acid] | 100.0% | 58.0% | 38.0% | 18.0% | 8.0% | 100.0% | 84% | 12.0% | 8.0% | 6.0%
100.0% | 92.3% | 83.4% | 77.2% | 71.9% | 61.5% | 49.1% | 43.0% | Nc1nc2c(c(=O)[nH]1)N1CN(c3ccc(C(=O)N[C@@H](CCC(=O)[O-])C(=O)O)cc3)C[C@H]1CN2.Nc1nc2c(c(=O)[nH]1)N1CN(c3ccc(C(=O)N[C@@H](CCC(=O)[O-])C(=O)O)cc3)C[C@H]1CN2.[Ca+2] [Co 751, calcium salt of 5,10-methylene-(6R)-tetrahydrofolic acid] | – | – | – | – | – | – | – | – | – | –
